Earlier results as cited in article PMC7457146 (Epigenomics, 2012).
pIC50: −log10 of the molar value. Several values for one entry are separate records, joined by “and”; a condition that tells them apart may be missing. Equal entries are not always repeated. Entries after “also recorded” stand apart in the source; their conditions may differ. Where two headings read alike, the source gives them in different places. Each block holds one compound with its values, some of them ahead of it.

How the values were obtained:
HDAC6 = details: ref Data supplied by Gloucester Pharmaceuticles Inc. and performed by Epigentek 2007
HDAC7 = details: ref Data supplied by Gloucester Pharmaceuticles Inc. and performed by Epigentek 2007
HDAC10 = details: ref Data supplied by Gloucester Pharmaceuticles Inc. and performed by Epigentek 2007
HDAC4 = details: ref Data supplied by Gloucester Pharmaceuticles Inc. and performed by Epigentek 2007
HDAC5 = details: ref Data supplied by Gloucester Pharmaceuticles Inc. and performed by Epigentek 2007
HDAC9 = details: ref Data supplied by Gloucester Pharmaceuticles Inc. and performed by Epigentek 2007
HDAC11 = details: ref Data supplied by Gloucester Pharmaceuticles Inc. and performed by Epigentek 2007
HDAC8 = details: ref Data supplied by Gloucester Pharmaceuticles Inc. and performed by Epigentek 2007
HDAC3 = details: ref Data supplied by Gloucester Pharmaceuticles Inc. and performed by Epigentek 2007
[1] = system: HBL2, Granta519 and Jeko1 MCL cell lines; details: belinostat 100–1000 nM or romidepsin 1–40 nM
[2] = system: cutaneous T-cell lymphoma; details: CTCL
multiple myeloma [3] = details: with bortezomib and dexamethasone
acute myeloid leukemia [4] = details: AML, 13 mg/m^2 iv. over 4 h days 1, 8, 15 of 28-day cycle
LNCaP cells = details: read-out: IC50 to induce growth delay
VEGF mRNA = details: PC-3 prostate cancer cells, after 12 h
[5] = system: human lymphoma U-937 tumors; details: SCID mice with U-937 tumors; control median 20 days
[6] = system: Epstein-Barr virus-transformed lymphoblastoid cell tumors
[7] = system: chronic lymphocytic leukemia
[8] = not given; remark: listed apart in the source
HDAC2 = details: ref Data supplied by Gloucester Pharmaceuticles Inc. and performed by Epigentek 2007
refractory lung cancer = details: 17.8 mg/m^2 days 1 and 7 of 21-day cycles, 19 patients
[9] = system: cutaneous T-cell lymphoma
[10] = system: cutaneous T-cell lymphoma; remark: listed apart in the source
[11] = nonhuman primates
acute myeloid leukemia [12] = details: ten AML patients, Phase I
multiple myeloma [13] = system: multiple myeloma
[14] = system: Prostate cancer: PC-3 and DU-145; details: read-out: Mean IC50; Prostate cancer cell lines, 72-h incubation; ref Data supplied by Gloucester Pharmaceuticals
HDAC1 = details: ref Data supplied by Gloucester Pharmaceuticles Inc. and performed by Epigentek 2007
[15] = not given; remark: listed apart in the source
[16] = system: malignant rhabdoid tumors; details: day 12; 1.2, 2.5 and 5 mg/kg on days 0, 4 and 8
[17] = 42 patients, Phase II trial
CYP3A4 = details: CYP450 family CYP3A4 isoform
[18] = system: pancreatic and other advanced solid tumors; details: in combination with gemcitabine

SMILES: N[C@@H](Cc1ccc(N(CCCl)CCCl)cc1)C(=O)O [melphalan]
apoptosis (U266 myeloma cells; melphalan 10 μmol/l (control 28%)): 44%

SMILES: C/C=C1\NC(=O)[C@@H](CS)NC(=O)[C@@H](C(C)C)NC(=O)C[C@@H](/C=C/CCS)OC(=O)[C@H](C(C)C)NC1=O [Activated romidepsin]
pIC50 (HDAC7): 6.56
pIC50 (HDAC10): 6.43
pIC50 (HDAC4): 7.02
pIC50 (HDAC6): 7.49
pIC50 (HDAC5): 7.10
pIC50 (HDAC9): 5.56
pIC50 (HDAC11): 7.19
pIC50 (HDAC8): 7.46
pIC50 (HDAC3): 6.99

SMILES: O=C(/C=C/c1cccc(S(=O)(=O)Nc2ccccc2)c1)NO [belinostat]
interaction with bortezomib (3–4 nM) [1]: synergism in all cell lines

SMILES: C/C=C1\NC(=O)[C@H]2CSSCC/C=C/[C@H](CC(=O)N[C@H](C(C)C)C(=O)N2)OC(=O)[C@H](C(C)C)NC1=O [Romidepsin]
minimal responses (multiple myeloma [3]; 25 pretreated myeloma patients): three
very good PRs (multiple myeloma [3]; 25 pretreated myeloma patients): seven
patients with antileukemic activity (acute myeloid leukemia [4]): five out of seven
increase in MDR1 (MDR1; malignant PBMCs of patients in NIH clinical trials): eightfold
increase in MDR1 (MDR1; normal PBMCs of patients in NIH clinical trials): sixfold
pIC50 (HDAC4): 6.33
Responses ([7]; Phase I, CLL, 10 patients): no formal CR or PR; also recorded: No PR/CR (see text)
average reduction in leukocyte counts ([7]; seven CLL patients with high peripheral white cell counts, range: 45–76%): 58%
interaction with bortezomib (3–4 nM) [1]: synergism in all cell lines
aqueous solubility: limited aqueous solubility
objective responses (refractory lung cancer): no objective responses
patients with disease stabilization (refractory lung cancer): nine
Responses: PR ([9]; Phase II, CTCL, 96 patients): 24
pIC50 (HDAC9): 5.18
CR or PR (acute myeloid leukemia [12]): none achieved CR or PR
clinical responses (multiple myeloma [13]; single agent 13 mg/m^2, 13 MM patients): no clinical responses were observed
pIC50 [14]: 8.53
pIC50 (HDAC11): 6.77
mean tumor volume [16]: significant reduction
pIC50 (HDAC3): 6.33
primary metabolising enzyme (CYP3A4): primarily metabolized by the CYP450 family CYP3A4 isoform
